Assay results published in patent US5776957A, “Nornicotine enantiomers for use as a treatment for dopamine related conditions and disease states” (The University of Kentucky Research Foundation, priority 1996, dated 1998).
“Also recorded” adds a separate entry of the source. Where two headings read alike, the source gives them in different places.

Tests used:
[1] = system: [3H]DA-preloaded rat striatal slices (nicotinic receptors); assay: [3H]overflow (DA release) from [3H]DA-preloaded rat striatal slices; type: cell-based
Description: In vitro pharmacological effects of NIC are generally investigated using either striatal slices or synaptosome preparations preloaded with [^3 H] DA. NIC-evoked [^3 H]overflow is obtained routinely in the presence of nomifensine (10 μM; a DA uptake inhibitor) and for pargyline (10 μM, a monoamine oxidase inhibitor) in the superfusion buffer, such that [^3 H]overflow represents primarily [^3 H]DA rather than [H]DA-metabolites (Zumstein et al., 1981, Hoffmann and Cubeddu, 1982, Dwoskin and Zahniser, 1986, Rapier et al., 1988), and for this reason, [^3 H]overflow also will be referred to as [^3 H] DA release in the proposal.
The present studies use striatal slices superfused with various concentrations of NIC or norNIC for prolonged periods.
FIG. 4. […] Insets illustrate the response to the low concentration range. […] NIC exposure indicated by the bar under time course. Note: 1-min sample collection period. […] N=4 rats.
Rat striatal slices were depolarized with 10 μM NIC, 20 mM K+or 1 Hz, 60 pulses or 3 Hz, 180 pulses electrical field stimulation. […] N=4.
MEC or DHβE was included in the superfusion buffer for 60 min prior to the addition of NIC, and superfusion continued for 60 min in the presence of NIC+antagonist.

[2] = Locomotor activity assay, acute and repeated treatment, S(-) nicotine challenge, saline challenge; type: in vivo, rat; settings: for behavioral sensitization after repeated administration: 8 injections once every 48 hrs, nicotine 1 mg/kg, R(+) 0.3-10 mg/kg; for conditioned response to repeated administration (saline challenge): 48 hrs after S(-) nicotine challenge; for cross-sensitization to S(-) nicotine: repeated S(-) nornicotine
Description: (I mg/kg), norNIC (0.3-10 mg/kg) or R(+) norNIC (0.3-10 mg/kg) was administered peripherally (s.c., 8 injections once every 48 hrs) to groups of rats and locomotor activity was assessed for 50 min immediately after each injection.
In the present study, S(-) nicotine (1 mg/kg), R(+) nornicotine (1-10 mg/kg), S(-) nornicotine (1-10 mg/kg), or vehicle (saline) were administered s.c. to groups of rats (n=6) acutely or repeatedly (8 injections once every 48 hrs). Locomotor activity was measured during 50 min sessions immediately following drug or vehicle administration.
Male Sprague-Hawley rats (225-250 g) from Harlan Laboratories were housed two per cage with free access to food and water.
Activity was recorded automatically in a wooden test-chamber measuring 30×28×43 cm high. The chamber had white walls and a wire mesh floor over pine chip bedding. Two photobeams located 4.5 cm above the floor divided the chamber into four equal quadrants. Electromechanical equipment located in an adjacent room recorded photobeam interruptions automatically. A white noise generator provided an ambient 70 dB background noise in the test room in order to minimize extraneous sounds that might influence the animal's behavior in the test chamber. Rats were habituated to the chamber for 50 min on each of three consecutive days.
On the day immediately after the third habituation session, rats were randomly divided into groups (n=6/group) and were administered s.c. either S(-) nicotine (1 mg/kg), R(+) nornicotine (0.3, 1, 3 and 10 mg/kg), or vehicle (saline) to determine acute drug effects on locomotor activity. In a separate experiment, rats (n=6/group) were administered s.c. either S(-) nicotine (1 mg/kg), S(-) nornicotine (0.3, 1, 3 and 10 mg/kg), or vehicle (saline). To determine the effect of repeated drug administration on locomotor activity, drug or vehicle was administered respectively in the test-room once every 48 hrs for a total of 8 injections. After each injection, locomotor activity was recorded during a 50 min session (five 10-min blocks). On the ninth injection day (48 hrs following injection 8), each group of rats was administered a challenge dose (1 mg/kg) of S(-) nicotine in the test-room, and locomotor activity was determined immediately thereafter. On the tenth injection day, each group of rats was administered saline and locomotor activity recorded to determine potential conditioning effects of the repeated drug administration.
Post hoc analysis of pairwise comparisons was performed with Duncan's New Multiple Range test.

[3] = acute S(-) nornicotine 1 and 3 mg/kg
[4] = repeated S(-) nornicotine 3 mg/kg

## CN1CCC[C@H]1c1cccnc1 [S(-) nicotine]
[1]
  absolute [3H]overflow vs 20 mM K+ or 1 Hz, 60 pulses stimulation: not significantly different
  evoked [3H]overflow: increase in [^3 H]overflow; also recorded: stereoselective and concentration dependent increase
  plateau in [3H]overflow: 30 mM
  plateau in response: fail to produce a plateau in response
  time of peak effect: 10 to 15 min
  time of return of release to basal levels: 30 to 60 min
[2]; S(-) nornicotine 10 mg/kg
  behavioral sensitization after repeated administration: robust behavioral sensitization
[2]
  conditioned response to repeated administration (saline challenge): did not contribute to the observed behavioral sensitization
[2]; R(+) experiment, S(-) nicotine 1 mg/kg group
  cumulated locomotor activity after saline challenge: 485 ± 41 number of photobeam interruptions/50 min session
[2]; S(-) experiment, S(-) nicotine 1 mg/kg group
  cumulated locomotor activity after saline challenge: 429 ± 34 number of photobeam interruptions/50 min session
[2]; acute S(-) nicotine 1 mg/kg, 20-40 min
  locomotor activity time course: did not alter activity
[2]; acute S(-) nicotine 1 mg/kg, first 10 min
  locomotor activity time course: significantly decreased activity
[2]; acute S(-) nicotine 1 mg/kg, last 10 min
  locomotor activity time course: significantly increased locomotor activity
[2]; acute, S(-) nicotine 1 mg/kg
  cumulated locomotor activity vs saline-control: not different from the saline-control group; also recorded: did not alter
[2]; repeated S(-) nicotine group vs saline-control
  cumulated locomotor activity after S(-) nicotine challenge: significantly increased
[2]; repeated S(-) nicotine, first 20 min (R(+) experiment) vs saline-control
  time course after S(-) nicotine challenge: significantly increased
[2]; repeated S(-) nicotine, first 30 min (S(-) experiment)
  time course after S(-) nicotine challenge: significantly greater
[2]; repeated S(-) nicotine, majority of time course
  locomotor activity time course: significant increase in activity
[2]; repeated, S(-) nicotine 1 mg/kg, 8 injections
  cumulated locomotor activity vs saline-control: significantly increased locomotor activity

## c1cncc([C@@H]2CCCN2)c1 [S(-) nornicotine, S-(-) nornicotine]
[1]; Rattus norvegicus, read-out: EC50 for norNIC stimulated, DHβE-sensitive [3H]overflow
  EC50: 0.88 ± 0.31 µM
[1]; concentration-dependent
  evoked [3H]overflow: increase in [^3 H]overflow; also recorded: stereoselective and concentration dependent increase
[1]; concentration-response curve, 60-min exposure
  plateau in response: not observed at concentrations up to 3 mM; also recorded: fail to produce a plateau in response
[1]; neuronal tissue
  release of dopamine from presynaptic terminals: stereoselective and receptor-mediated
[2]; S(-) nornicotine 10 mg/kg
  behavioral sensitization after repeated administration: produces behavioral sensitization; also recorded: behavioral sensitization following repeated administration of the high dose of S(-) nornicotine was observed
[2]; S(-) nornicotine 10 mg/kg, listed as S-(-)- norNIC
  behavioral sensitization after repeated administration: produces behavioral sensitization
[2]
  conditioned response to repeated administration (saline challenge): did not contribute to the observed behavioral sensitization
  cross-sensitization to S(-) nicotine: cross-sensitization to S(-) nicotine was observed
[2]; S(-) experiment, 0.3 mg/kg
  cumulated locomotor activity after saline challenge: 352 ± 17 number of photobeam interruptions/50 min session
[2]; S(-) experiment, 1.0 mg/kg
  cumulated locomotor activity after saline challenge: 333 ± 38 number of photobeam interruptions/50 min session
[2]; S(-) experiment, 3.0 mg/kg
  cumulated locomotor activity after saline challenge: 394 ± 50 number of photobeam interruptions/50 min session
[2]; S(-) experiment, 10 mg/kg
  cumulated locomotor activity after saline challenge: 459 ± 26 number of photobeam interruptions/50 min session
[2]; S(-) nornicotine 10 mg/kg, repeated
  locomotor activity after the seventh injection: 364±32 photobeam interruptions
[2]; acute S(-) nornicotine 0.3 mg/kg
  cumulated locomotor activity vs saline-control: significantly increased
[2]; acute S(-) nornicotine 0.3 mg/kg, first 20 min
  locomotor activity time course: significant increase in activity
[2]; acute S(-) nornicotine 10 mg/kg
  cumulated locomotor activity vs saline-control: significant decrease in activity
[2]; acute S(-) nornicotine 10 mg/kg, first 10 min
  locomotor activity time course: decreased during the first 10 min of the session
[2]; [3]
  cumulated locomotor activity vs saline-control: not different from the saline-control group
  locomotor activity time course: not different from the saline-control group
[2]; acute, 0.3 and 10 mg/kg, R(+) experiment
  cumulated locomotor activity vs saline-control: significant decrease in locomotor activity
[2]; acute, 1 and 3 mg/kg, R(+) experiment
  cumulated locomotor activity vs saline-control: not different from control
[2]; acute, S(-) nornicotine 3 mg/kg
  locomotor activity, first 10 min: 121±14 photobeam interruptions
[2]; repeated S(-) nornicotine 0.3 mg/kg
  tolerance to acute stimulatory effect: tolerance to the acute stimulatory effect
[2]; [4]
  locomotor activity, first 10 min: 101±12 photobeam interruptions
  locomotor activity, first 10 min after S(-) nicotine challenge: 134±21 photobeam interruptions
  tolerance to depressant effect: tolerance did not develop
[2]; repeated S(-) nornicotine 10 mg/kg
  tolerance to depressant effect: also observed; also recorded: tolerance developed
[2]; repeated S(-) nornicotine 10 mg/kg, 10-min and 30-min time points
  time course after S(-) nicotine challenge: stimulated significantly
[2]; repeated S(-) nornicotine 10 mg/kg, 20-40 min
  locomotor activity time course: significantly greater than that of the saline-control group
[2]; repeated S(-) nornicotine 10 mg/kg, last administration
  locomotor activity vs saline-control: stimulated significantly above that of the saline-control group
[2]; repeated S(-) nornicotine 0.3-3 mg/kg
  locomotor activity time course: not different from the saline-control group
[2]; repeated S(-) nornicotine 0.3 and 1 mg/kg
  time course after S(-) nicotine challenge: not different from that of the saline-control group
[2]; repeated S(-) nornicotine 0.3 and 1.0 mg/kg
  cumulated locomotor activity after S(-) nicotine challenge: no effect
[2]; repeated S(-) nornicotine 1 and 3 mg/kg
  locomotor activity vs saline-control: not different from that of the saline-control group
[2]; repeated S(-) nornicotine 3 and 10 mg/kg
  cumulated locomotor activity after S(-) nicotine challenge: significantly stimulated locomotor activity
[2]; listed as norNIC
  cross-sensitization to S(-) nicotine: cross-sensitization was observed
